In PMC11720699, “Developing Allosteric Chaperones for GBA1-Associated Disorders—An Integrated Computational and Experimental Approach” (International Journal of Molecular Sciences, 2024):
Changes are numbered by the printed parent chain.

How the values were obtained:
[1] = target: T1, human recombinant GCase (Cerezyme) (Homo sapiens, UniProt P04062, R534H); test: Surface plasmon resonance (SPR) binding to immobilized GCase; settings: pH 7.4; for Chi^2 / Offset: SPR fit; for Dose-response / Kd / Rmax: SPR
T1 construct: The human full-length GCase protein (Cerezyme, wild type, not tagged; Genzyme, Naarden, The Netherlands); purchased Genzyme
T1 sequence (P04062 40-536 R534H): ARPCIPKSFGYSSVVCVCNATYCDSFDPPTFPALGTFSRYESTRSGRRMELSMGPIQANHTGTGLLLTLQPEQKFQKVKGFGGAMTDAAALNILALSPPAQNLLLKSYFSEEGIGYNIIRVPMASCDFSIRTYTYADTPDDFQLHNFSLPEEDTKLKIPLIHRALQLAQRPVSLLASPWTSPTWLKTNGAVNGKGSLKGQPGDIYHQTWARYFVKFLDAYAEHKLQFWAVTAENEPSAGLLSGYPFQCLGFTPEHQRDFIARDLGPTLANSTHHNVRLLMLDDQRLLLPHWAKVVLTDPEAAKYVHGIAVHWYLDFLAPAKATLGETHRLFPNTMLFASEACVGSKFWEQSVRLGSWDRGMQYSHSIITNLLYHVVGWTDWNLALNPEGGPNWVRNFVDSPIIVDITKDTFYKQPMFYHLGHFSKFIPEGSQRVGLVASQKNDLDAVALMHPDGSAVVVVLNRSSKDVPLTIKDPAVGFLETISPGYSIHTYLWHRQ
Description: The surface plasmon resonance (SPR) technique is used to detect changes in the refractive index on the surface of a sensor due to changes in mass. […] Binding to GCase by SPR was confirmed for selected compounds using recombinant human GCase protein at a neutral pH of 7.4 (Figure 4A,B). […] Compounds 2 and 3, along with isofagomine (IFG) as a control, were evaluated in an activity assay using lysates from wild-type fibroblasts (Figure 4C).
All SPR experiments were performed at 20 °C using the Biacore T200 (GE Healthcare, Uppsala, Sweden). SPR detects changes in the refractive index on the sensor surface due to mass changes, which helps measure the interaction between the GCase protein (Cerezyme) and the tested compounds.
The human full-length GCase protein (Cerezyme, wild type, not tagged; Genzyme, Naarden, The Netherlands) was immobilized on an SPR CM5 sensor (29149603, GE Healthcare, Chicago, IL, USA) using standard amino coupling with a high protein concentration of 100 µg/mL. A nine-point, 2-fold serial dilution starting from 180 µM of the compound (from a 10 mM stock solution in DMSO) was tested by SPR at pH 7.4 in a buffer containing 10 mM Hepes, 5 mM EDTA, 150 mM NaCl, 0.01% Tween-20, 0.5 mg/mL CM-Dextran, and 5% DMSO. Reference channels included empty, activated, and deactivated channels on the same SPR sensor. The raw SPR signals from the active channel with immobilized GCase were adjusted by subtracting signals from the reference channel and the running buffer (double referenced) and corrected for any DMSO signal mismatch. Binding affinity values were extracted by fitting the SPR data to a four-parameter logarithmic dose-response equation without constraints using GraphPad Prism version 10.2.3.

[2] = target: T2, GCase (Homo sapiens, UniProt P04062); test: Differential scanning fluorimetry (DSF) thermal stabilization of GCase; type: binding; design: purchased R&D Systems; settings: pH 7.2, DSF, 30 µM compound, read-out: ΔTm (thermal shift relative to rhGCase alone)
T2 sequence (P04062 40-536): T1 sequence (P04062 40-536 R534H) with H495R
Description: DSF is a method used to evaluate protein thermal stability and detect ligand interactions by observing how binding affects protein stability. Specifically, it examines the interaction between small molecules and the human GCase protein. DSF uses fluorescent dyes to track protein unfolding as temperature changes. As the protein unfolds due to rising temperatures, its hydrophobic regions become exposed, altering the dye’s fluorescence signal. This change helps determine the melting temperature (Tm). Variations in Tm compared to the protein alone reveal interactions with tested compounds, aiding in identifying molecules that stabilize GCase.
The ability of the compounds to stabilize the GCase protein was evaluated using DSF. This involved monitoring the thermal denaturation of the purified human native enzyme with the fluorescent probe SYPRO™ Orange (Thermo Fisher Scientific, Waltham, MA, USA), which binds to hydrophobic regions exposed during protein unfolding. Each reaction (25 μL) was conducted in triplicate in a 96-well plate. The reactions included 12.5 µL of […] rhGCase protein (R&D Systems) in a buffer of 10 mM Na3PO4, 164 mM NaCl, pH 7.2, resulting in a final protein concentration of 1 µM with SYPRO Orange 10x. Additionally, 12.5 µL of various compound solutions, initially dissolved in 100% DMSO and diluted in the protein buffer to a final concentration of 1% DMSO, were added. The fluorescence intensity of SYPRO Orange was measured as the temperature increased using the Roche LightCycler® 480 II (Roche Diagnostics). The significance of melting temperature (Tm) shifts was determined by two criteria: an absolute ∆Tm shift greater than 0.5 °C (instrumental criterion) and an absolute ΔTm standard deviation of 0.2 or less (statistical criterion). The thermal shift dose response was tested with GCase (R&D Systems) in two independent experiments, each performed in triplicate at a concentration of 30 µM for the DSF assays.

[3] = target: T2, GCase; test: GCase biochemical activity assay in wild-type fibroblast lysates; design: endogenous in cells; host or cells: wild-type fibroblasts (lysate); settings: pH 5.6
Description: Lysates were prepared from wild-type fibroblasts using a lysis buffer containing 0.9% NaCl and 0.01% Triton-X100. Protein concentration was measured with a BCA protein assay kit. The cell lysates were then incubated with the specified compound for 15 min. The assay was conducted in a reaction buffer with 5 mM 4-methylumbelliferyl-beta-D-glucopyranoside in 0.1 M citrate-phosphate buffer at pH 5.6. The reactions were incubated at 37 °C for 1 h. To stop the reaction, 140 µL of 100 mM Glycine-NaOH buffer at pH 10.7 was added. The released 4-MU was measured using a Glomax® Discover microplate reader, with excitation at 340 nm and emission at 460 nm.

| Compound | Chi^2 [1] | Offset [1] | Dose-response [1] | Kd [1] | Rmax [1] | ΔTm at 30 µM [2] | effect on GCase enzymatic activity in lysates [3] |
| --- | --- | --- | --- | --- | --- | --- | --- |
| CN(C(=O)c1cc(N)cc(Nc2cccc3c2OCO3)n1)c1ccccc1 [Compound 3] | 2.61 RU^2 | −1.406 RU | Yes | 50.7 µM | 22.73 RU | -0.64 °C | without altering its enzymatic function |
| CN(Cc1ccccc1)Cc1nc(N)nc(Nc2cccc(Br)c2)n1 [Compound 2] | 1.28 RU^2 | 1.959 RU | Yes | 29.8 µM | 35.57 RU | -0.1 °C | displayed inhibitory effects |
